How the values were obtained:
Type in all cases: functional, cell-based
[1] = tested on: MDA-MB-231; assay: Cytotoxicity against human MDA-MB-231 cells assessed as growth inhibition after 72 hrs by SRB assay
[2] = tested on: MDA-MB-468; assay: Cytotoxicity against human MDA-MB-468 cells assessed as growth inhibition after 72 hrs by SRB assay
[3] = tested on: HCC70; assay: Cytotoxicity against human HCC70 cells assessed as growth inhibition after 72 hrs by SRB assay
[4] = tested on: BT-549; assay: Cytotoxicity against human BT549 cells assessed as growth inhibition after 72 hrs by SRB assay

SMILES | IC50 ([1]; mda-mb-231) | IC50 ([2]; mda-mb-468) | IC50 ([3]; hcc70) | IC50 ([4]; bt-549) | IC50 ([1]; Homo sapiens, MDA-MB-231, 72 h) | IC50 ([2]; Homo sapiens, MDA-MB-468, 72 h) | IC50 ([3]; Homo sapiens, HCC70, 72 h) | IC50 ([4]; Homo sapiens, BT-549, 72 h)
CC1=C[C@H]2O[C@@H]3C[C@@H](OC(=O)/C=C\C=C\[C@@H](OCCC4=CC(=O)OC4)[C@@H](C)O)[C@](C)([C@@]2(COC(=O)/C=C(\C)CCO)CC1)[C@@]31CO1 | 20 nM | 80 nM | 20 nM | 4 nM |  |  |  | 
C/C1=C\C(=O)OC[C@@]23CC[C@](C)(O)[C@H]4C[C@@]5(O)[C@@H](C[C@@H](OC(=O)/C=C\C=C\[C@H]([C@@H](C)O)OCC1)[C@]25C)O[C@H]43 |  |  |  |  | > 10000 nM | > 10000 nM | > 10000 nM | > 10000 nM
COC(=O)/C=C/C=C/[C@@H](OCC/C(C)=C/C(=O)OC[C@]12CCC(C)=C[C@H]1O[C@@H]1C[C@@H](O)[C@@]2(C)[C@@]12CO2)[C@@H](C)O | > 10000 nM | > 10000 nM | > 10000 nM | > 10000 nM |  |  |  | 
CC1=C[C@H]2O[C@@H]3C[C@H]4OC(=O)/C=C\C=C\[C@]5([C@H](C)O)OCC/C(=C\C(=O)OC[C@@]2(CC1)[C@]4(C)[C@@]31CO1)[C@H]5O | 2000 nM | 3400 nM | 2200 nM | 1800 nM |  |  |  | 
CC1=C[C@H]2O[C@@H]3C[C@H]4OC(=O)/C=C\C=C\[C@]5([C@H](C)O)OCC/C(=C\C(=O)OC[C@@]2(CC1)[C@]4(C)[C@@]31CO1)[C@@H]5O | 0.4 nM | 3 nM | 1 nM | 0.3 nM |  |  |  | 
CC1=C[C@H]2O[C@@H]3C[C@@H](OC(=O)/C=C\C=C\[C@]4([C@H](C)O)OCC/C(=C\C(=O)O)[C@@H]4O)[C@](C)([C@@]2(CO)CC1)[C@@]31CO1 | 3600 nM | > 10000 nM | 7700 nM | 1800 nM |  |  |  | 
CC1=C[C@H]2O[C@@H]3C[C@@H](OC(=O)/C=C\C=C\[C@@H](OCCC4=CC(=O)OC4)[C@@H](C)O)[C@](C)([C@@]2(CO)CC1)[C@@]31CO1 | > 10000 nM | > 10000 nM | > 10000 nM | > 10000 nM |  |  |  | 
COc1cccc2c1C(=O)c1c(O)c3c(c(O)c1C2=O)C[C@@](O)(C(=O)CO)C[C@@H]3O[C@H]1C[C@H](N)[C@H](O)[C@H](C)O1 [DOXORUBICIN] |  |  |  |  | 80 nM | 70 nM | 50 nM | 10 nM
COc1cc([C@@H]2c3cc4c(cc3[C@@H](O[C@@H]3O[C@@H]5CO[C@@H](C)O[C@H]5[C@H](O)[C@H]3O)[C@H]3COC(=O)[C@H]23)OCO4)cc(OC)c1O [ETOPOSIDE] |  |  |  |  | 2300 nM | 2100 nM | 1800 nM | 1800 nM
CC1=C[C@H]2O[C@@H]3C[C@H]4OC(=O)/C=C\C=C\[C@H]([C@@H](C)O)OCC/C(C)=C/C(=O)OC[C@@]2(CC1)[C@]4(C)[C@]31CO1 [RORIDIN E] | 0.03 nM | 0.05 nM | 0.02 nM | 0.02 nM |  |  |  | 

— ChEMBL document CHEMBL4371018, “Macrocyclic Trichothecene Mycotoxins from a Deadly Poisonous Mushroom, Podostroma cornu-damae” (J Nat Prod, 2019)
